Reference: US4663326A, “Pyrazolo[4,3-d]pyrimidine-5,7-(4H,6H)dione or -5-thione-7-one analogs” (Warner-Lambert Company, priority 1985, dated 1987)
“And” between values parts separate entries of the source, which are not always exact repeats. Identical values can stand only once.

Assays:
Type 1 Phosphodiesterase = experiment: PDE inhibition, Type 1 phosphodiesterase, cardiac muscle; format: biochemical; details: 1 × 10^-4 M
Experimental: (§1) Phosphodiesterase activity was measured as described previously (Weishaar, P. E., Quade, M., Boyd, D., Schenden, J., Mark, S. S., Kaplan, H. R., Drug Devel. Res., 3:517-534, 1983), in a reaction medium containing 40 mM Tris-HCl (pH 8.0), 5 mM MgCl and 4 mM 2-mercaptoethanol. Unless otherwise noted, the concentration of substrate (^3 H-cyclic AMP or ^3 H-cyclic GMP) was 1.0 μM. All agents examined were dissolved in dimethyl sulfoxide (DMSO). Final concentration of the reaction medium was either 2.5% (cardiac and platelet studies) or 1.25% (smooth muscle studies). This concentration of DMSO produced an approximately 10% inhibition of enzyme activity. […] Three to four such concentration-response curves were generated for each agent, generally using different enzyme preparations for each concentration-response.

Type 2 Phosphodiesterase = biological target: T1, Type 2 Phosphodiesterase (Cavia porcellus, UniProt A0A286XUV5); experiment: PDE inhibition, Type 2 phosphodiesterase, cardiac muscle; format: biochemical; design: inhibition: dose or concentration left out as unconfirmed; details: for inhibition at 100 µM: 1 × 10^-4 M, read-out: % Inhibition of 3H-cGMP Hydrolysis, Type 2 Phosphodiesterase; for inhibition: read-out: % Inhibition of 3H-cAMP Hydrolysis, Type 2 Phosphodiesterase
T1 construct: from tissue
T1 sequence (A0A286XUV5 22-936): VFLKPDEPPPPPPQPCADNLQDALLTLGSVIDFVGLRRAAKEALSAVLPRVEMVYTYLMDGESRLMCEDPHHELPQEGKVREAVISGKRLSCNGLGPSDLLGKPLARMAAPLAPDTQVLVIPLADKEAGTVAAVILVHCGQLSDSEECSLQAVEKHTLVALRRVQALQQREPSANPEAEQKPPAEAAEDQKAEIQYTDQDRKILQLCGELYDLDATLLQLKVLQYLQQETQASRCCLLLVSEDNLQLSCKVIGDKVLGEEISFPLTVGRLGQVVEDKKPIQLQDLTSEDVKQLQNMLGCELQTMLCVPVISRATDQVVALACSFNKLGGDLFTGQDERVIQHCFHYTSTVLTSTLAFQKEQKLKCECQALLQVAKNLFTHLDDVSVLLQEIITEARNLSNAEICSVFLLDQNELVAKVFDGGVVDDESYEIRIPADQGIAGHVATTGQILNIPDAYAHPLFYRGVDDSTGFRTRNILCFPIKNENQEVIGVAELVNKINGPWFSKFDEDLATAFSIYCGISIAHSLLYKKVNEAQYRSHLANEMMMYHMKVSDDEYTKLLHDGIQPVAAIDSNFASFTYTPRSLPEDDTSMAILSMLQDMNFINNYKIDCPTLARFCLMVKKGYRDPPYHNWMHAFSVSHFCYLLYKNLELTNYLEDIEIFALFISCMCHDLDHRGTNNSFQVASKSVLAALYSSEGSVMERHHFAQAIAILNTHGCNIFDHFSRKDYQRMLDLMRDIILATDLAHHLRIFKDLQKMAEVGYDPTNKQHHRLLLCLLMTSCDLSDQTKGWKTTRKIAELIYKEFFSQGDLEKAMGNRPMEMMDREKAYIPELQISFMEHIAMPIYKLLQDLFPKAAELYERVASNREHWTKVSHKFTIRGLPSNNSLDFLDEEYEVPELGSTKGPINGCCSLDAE
Experimental: as §1

histamine = experiment: Bronchodilator test (BCA), histamine spasmogen, guinea pigs; format: in vivo, Hartley Guinea Pigs; design: key: Active; details: 50 mg/kg
Description: The compounds of this invention may be determined to have antiallergy activity by a standard laboratory means employing the bronchodilator test (BCA) readily accepted as a standard for antiallergy activity, which is described in Siegmund, H. O., et al (J. Pharmacol. and Exptl., 90:254, 1949 and Herxheimer, H., J. Physiol., 117: 252-255, 1952). Thus, antiallergy activity was found for compounds of this invention by this BCA test using Hartley Guinea Pigs by the procedures as described below.
Naive (BCA) pigs are exposed to spasmogen for ten minutes by means of a De Vilbiss number 40 nebulizer positioned at the back of a closed, six unit plexiglas chamger (19×12.5×9"). Air flow is adjusted to give a pressure of 10 lbs/in; six animals per treatment are averaged, and the mean value for compound treated animals is compared to that for animals treated with vehicle. […]
The spasmogen may be acetylcholine chloride (0.3%), histamine (0.1%), methacholine chloride (Mecholyl) (0.1%) or serotonin creatinine sulfate. Each nebulizer dispenses 0.2 cc/minute.

Type 3 Phosphodiesterase = experiment: PDE inhibition, Type 3 phosphodiesterase, cardiac muscle; format: biochemical; details: 1 × 10^-4 M
Experimental: as §1

[1] = biological target: T2, adenosine receptors (designated A1) (Rattus norvegicus, UniProt P25099); experiment: Adenosine receptor binding - A1 receptor affinity (RBA1), [3H]-CHA displacement, rat whole brain minus cerebellum and brainstem membranes; design: species or system rat (male Long Evans); details: 1.0 nM [3H]-CHA, 25° C., pH 7.7; repeat tests (Test 1-4) one line each; read-out: RBA-1 (IC50, adenosine A1 affinity)
T2 construct: Whole brain minus cerebellum and brainstem from male Long Evans rats (150-200 g); from tissue; host or cells: whole brain minus cerebellum and brainstem, male Long Evans rats, membranes
T2 sequence (P25099 1-326): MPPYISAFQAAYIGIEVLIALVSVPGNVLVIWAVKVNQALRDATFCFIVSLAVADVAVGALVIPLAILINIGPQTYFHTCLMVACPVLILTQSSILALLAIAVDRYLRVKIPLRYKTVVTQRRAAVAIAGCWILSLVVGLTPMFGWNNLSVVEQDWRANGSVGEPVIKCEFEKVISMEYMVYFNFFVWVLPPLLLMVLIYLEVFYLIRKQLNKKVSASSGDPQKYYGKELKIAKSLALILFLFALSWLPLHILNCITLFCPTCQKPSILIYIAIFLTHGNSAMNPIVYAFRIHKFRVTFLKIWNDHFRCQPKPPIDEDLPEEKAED
Experimental: ADENOSINE RECEPTOR BINDING-A1 RECEPTOR AFFINITY (RBA1)
Whole brain minus cerebellum and brainstem from male Long Evans rats (150-200 g) was homogenized in 30 volumes of ice-cold 0.05M Tris-HCl buffer pH 7.7 using a Brinkman Polytron PT-10, (setting number 6 for 20 seconds) and centrifuged for ten minutes at 20,000×g (Sorvall RC-2), 4° C. The supernatant was discarded, and the pellet was resuspended and centrifuged as before. The pellet was resuspended in 20 ml Tris-HCl buffer containing two International Units/ml of adenosine deaminase (Sigma type III from calf intestinal mucosa), incubated at 37° C. for 30 minutes, then subsequently at 0° C. for ten minutes. The homogenate was again centrifuged, and the final pellet was resuspended in ice-cold 0.05M Tris-HCl buffer pH 7.7 to a concentration of 20 mg/ml original wet tissue weight and used immediately.
Tissue homogenate (10 mg/ml) was incubated in 0.05M Tris-HCl buffer pH 7.7 containing 1.0 nM [^3 H]-N^6 -cyclohexyladenosine (^3 H]-CHA) with or without test agents in triplicate for one hour at 25° C. Incubation volume was 2 ml. Unbound [^3 H]-CHA was separated by rapid filtration under reduced pressure through Whatman glass fiber (GF/B) filters. The filters were rinsed three times with 5 ml of ice cold 0.05M Tris-HCl buffer pH 7.7. The radio-labeled ligand retained on the filter was measured by liquid scintillation spectrophotometry after shaking the filters for one hour or longer on a mechanical shaker in 10 ml of Beckman Ready-Solv HP scintillation cocktail.
Nonspecific binding was defined as the binding which occurred in the presence of 1 mM theophylline. The concentration of test agent which inhibited 50% of the specific binding (IC50) was determined by nonlinear computer curve fit. The Scatchard plot was calculated by linear regression of the line obtained by plotting the amount of radioligand bound ([…]) versus [bound radioligand/free radioligand].Since the amount of radioligand bound was a small fraction of the total amount added, free radioligand was defined as the concentration (nM) of radioligand added to the incubation mixture. The Hill coefficient was calculated by linear regression of the line obtained by plotting the log of the bound radioligand vs the log of the [bound radioligand/(Bmax -bound radioligand)]. The maximal number of binding sites (Bmax) was calculated from the Scatchard plot.

Compound | % Inhibition of 3H-cAMP Hydrolysis, Type 1 Phosphodiesterase (Type 1 Phosphodiesterase) | % Inhibition of 3H-cGMP Hydrolysis, Type 1 Phosphodiesterase (Type 1 Phosphodiesterase) | inhibition at 100 µM (Type 2 Phosphodiesterase) | inhibition (Type 2 Phosphodiesterase) | % Inhibition of 3H-cAMP Hydrolysis, Type 3 Phosphodiesterase (Type 3 Phosphodiesterase) | IC50 [1] | BCA Results, Ratings (histamine)
CCCn1c(=O)[nH]c2c(C)nn(CC)c2c1=O [Example 5, 1H-1-Ethyl-3-methyl-6-propyl-pyrazolo[4,3-d]pyrimidine-5,7-[4H,6H]dione] | A (56-100% inhibition at 1 × 10^-5 M) | A (56-100% inhibition at 1 × 10^-5 M) | 56 to 100% | 56 to 100% | B (36-55% inhibition at 1 × 10^-5 M) | 0.458 µM and 0.992 µM and 0.378 µM and 0.401 µM | A
CCn1nc(C)c2[nH]c(=O)[nH]c(=O)c21 [Example 3, 1-Ethyl-3-methyl-1H-pyrazolo[4,3-d]pyrimidine-5,7(4H,6H)dione] | B (36-55% inhibition at 1 × 10^-5 M) | B (36-55% inhibition at 1 × 10^-5 M) | 36 to 55% | 36 to 55% | A (56-100% inhibition at 1 × 10^-5 M) | 5.88 µM | A
CCn1nc(C)c2[nH]c(=O)n(C)c(=O)c21 [Example 6, 1-Ethyl-3,6-dimethyl-1H-pyrazolo-[4,3-d]pyrimidine-5,7-[4H,6H]dione] | A (56-100% inhibition at 1 × 10^-5 M) | A (56-100% inhibition at 1 × 10^-5 M) | 56 to 100% | 36 to 55% | A (56-100% inhibition at 1 × 10^-5 M) | 2.53 µM | A
CCn1c(=O)[nH]c2c(C)nn(CC)c2c1=O [Example 4, 1-Ethyl-3-methyl-6ethyl-1H-pyrazolo[4,3-d]pyrimidine-5,7-[4H,6H]dione] | A (56-100% inhibition at 1 × 10^-5 M) | A (56-100% inhibition at 1 × 10^-5 M) | 56 to 100% | 56 to 100% | A (56-100% inhibition at 1 × 10^-5 M) | 1.04 µM and 1.52 µM | A

Further lines, with some results ahead:

% Inhibition of 3H-cAMP Hydrolysis, Type 1 Phosphodiesterase (Type 1 Phosphodiesterase) | % Inhibition of 3H-cGMP Hydrolysis, Type 1 Phosphodiesterase (Type 1 Phosphodiesterase) | inhibition at 100 µM (Type 2 Phosphodiesterase) | inhibition (Type 2 Phosphodiesterase) | % Inhibition of 3H-cAMP Hydrolysis, Type 3 Phosphodiesterase (Type 3 Phosphodiesterase) | IC50 [1] | Compound | BCA Results, Ratings (histamine)
B (36-55% inhibition at 1 × 10^-5 M) | B (36-55% inhibition at 1 × 10^-5 M) | 56 to 100% | 56 to 100% | A (56-100% inhibition at 1 × 10^-5 M) |  | CCn1c(=O)c2c(c(C)nn2C)n(CC)c1=O [Example 8, 4,6-Diethyl-1,3-dimethyl-1H-pyrazolo[4,3-d]pyrimidine-5,7-[4H,6H]dione] | A
A (56-100% inhibition at 1 × 10^-5 M) | A (56-100% inhibition at 1 × 10^-5 M) | 56 to 100% | 56 to 100% | A (56-100% inhibition at 1 × 10^-5 M) |  | CCCn1c(=O)c2c(c(C)nn2C)n(CCC)c1=O [Example 9, 1,3-dimethyl-4,6-dipropyl-1H-pyra-3-zolo[4,3-d]pyrimidine-5,7-[4H,6H]dione] | 
C (21-35% inhibition at 1 × 10^-5 M) | N (0-20% inhibition at 1 × 10^-5 M) | 36 to 55% | 36 to 55% | C (21-35% inhibition at 1 × 10^-5 M) |  | Cc1nn(C)c2c(=O)n(C)c(=O)n(C)c12 [Example 7, 1,3,4,6-tetramethyl-1H-pyrazolo[4,3-d]pyrimidine-5,7-[4H,6H]dione] | A
